Measured values as given in US20040259878A1, “Fluoromethotrexates and uses therefor” (priority 2003, published 2004).
Values joined by “and” are separate entries in the source; they are usually repeats but may differ in a detail not shown here. Equal values may be shown once. Read-outs that look alike come from different tables or passages of the source.

Assays:
[1] = test system: MTX-sensitive HT-1080 tumor xenograft; experiment: Tumor response (in vivo surviving fraction) with leucovorin rescue, HT-1080 xenograft; design: species or system athymic nude mice
Description: At 6 hours post 3′-fluoromethotrexate administration mice received i.p. hydration of 1.0 cc normal saline and at 24 hours received leucovorin (Bedford Laboratories, Bedford, Ohio) rescue therapy (36). This protocol allows the mice to survive what would otherwise be a fatal dosage of 3′-fluoromethotrexate and is analogous to that used in high-dose MTX therapy in humans. Tumor growth was monitored post-therapy.
The 3 perpendicular axes of the tumor were measured with a micrometer and the tumor volume modeled as a spheroid, i.e., v=π/6a·b·c, where a, b, c are the dimensions of the tumor axes in cm.
The parameter DT0 is the mean doubling time of the untreated, control group for each xenograft tumor model and TGD is the tumor growth delay for the treated tumor (the difference in tumor doubling time between the treated tumor and DT0).
Analysis of the tumor growth post-therapy allows for a comparison of the efficacy of MTX and 3′-fluoromethotrexate in terms of SF, the fraction of cells in the pretreatment tumor surviving therapy (Eqn. 3).

[2] = test system: human sarcoma cell line HT-1080; experiment: In vitro cytotoxicity against HT-1080, XTT/PMS cell viability assay

Row | Molecule | SF, in vivo surviving fraction ([1]; 200 mg/kg, HT-1080 model) | SF, in vivo surviving fraction ([1]; 400 mg/kg i.v. bolus, HT-1080 model) | IC50 ([2]; Homo sapiens, HT-1080, 24 h, read-out: IC50 for 24 h drug exposure, normal medium = RPMI-1640 medium + 10% FCS, 24 h exposure) [nM] | IC50 ([2]; Homo sapiens, HT-1080, 24 h, read-out: IC50 for 24 h drug exposure, treated medium = thymidine-free RPMI-1640 + 10% FCS, 24 h exposure) [nM] | SF, in vivo surviving fraction ([1]; mouse, in vivo) | IC50 ([2]; read-out: IC50 for 24 h drug exposure, normal medium = RPMI-1640 medium + 10% FCS, 24 h exposure) [nM] | IC50 ([2]; read-out: IC50 for 24 h drug exposure, treated medium = thymidine-free RPMI-1640 + 10% FCS, 24 h exposure) [nM]
1 | CN(Cc1cnc2nc(N)nc(N)c2n1)c1ccc(C(=O)N[C@@H](CCC(=O)O)C(=O)O)cc1 [MTX, methotrexate] | 0.64±0.08 | 0.56±0.07 | 445 ± 148 | 69 ± 19 | – | – | –
2 | N-(2-Fluoro-4-amino-4-deoxy-N-methyl-pteroyl)-L-glutamic acid [FMTX] | – | – | – | – | 0.29±0.06 and 0.42±0.04 | 345 ± 117 | 26 ± 5
